Values of other authors, collected in patent publication US20110151028A1, “Topical vaginal preparation” (priority 2009, published 2011).

Conditions: carrier: standard hydrophilic transdermal carrier, propylene glycol

- systemic absorption of transdermally delivered erythromycin: rapid systemic absorption
Structure (SMILES): CC[C@H]1OC(=O)[C@H](C)[C@@H](O[C@H]2C[C@@](C)(OC)[C@@H](O)[C@H](C)O2)[C@H](C)[C@@H](O[C@@H]2O[C@H](C)C[C@H](N(C)C)[C@H]2O)[C@](C)(O)C[C@@H](C)C(=O)[C@H](C)[C@@H](O)[C@]1(C)O [erythromycin]
